Results: patent US20210356467A1, “SYSTEMS AND METHOD FOR SCREENING SMALL MOLECULES OF INTEREST” (TECHNOLOGY INNOVATION MOMENTUM FUND (ISRAEL) LIMITED …, priority 2018, published 2021)

Columns and labels:
[1] = biological target: T1, GSPT1 ubiquitylation by CRBN (Homo sapiens, UniProt P15170+Q96SW2); test: split-CAT selective growth assay, GSPT1 as ubiquitylation target of CRBN; assay type: cell-based; design: expressed in transfected cells; host or cells: E. coli; settings: for growth of E. coli that express GSPT1 (ubiquitylation dependent growth, OD600): split-CAT system, Cereblon-E2 (Ubc4) fusion, LB with chloramphenicol, 96 and 384 well plates
Method: (§1) Activity assays with split-CAT system: Vectors containing the split-CAT ubiquitylation system were co-transformed into E. coli and grew in the presence of the relevant antibiotics (e.g. kanamycin and streptomycin). Overnight culture was harvested and the media was replaced with fresh LB containing 8 μg/ml chloramphenicol. The culture was diluted to O.D.600=0.2 and dispended to a 96 or 384 well plate supplemented with potential small molecule drugs or DMSO only. The plate was placed in a shaker/incubator/reader and OD600 was continuously monitored during the growth.
(§2) This procedure was used to read the ubiquitylation dependent growth of IKZF1, IKZF3, CK1a and GSPT1.
(§3) In a first experiment, IKZF1 (Q13422) and GSPT1 (P15170) were analyzed as potential ubiquitylation targets. These targets were coexpressed with C-CAT-Ub and E1 and the Cereblon-E2 (Ubc4) fusion. […] These assays were performed in 96 and 384 well plates.
In a third experiment, GSPT1 was analyzed as a potential ubiquitylation target. It was expressed in-frame upstream to the N-CAT fragment. The target was co-expressed with C-CAT-Ub, wheat E1 and Cereblon-E2 (Ubc4) fusion. […] These assays were performed in 96 and 384 well plates.
Target sequence in this assay (P15170 whole entry, the tested form may be a part): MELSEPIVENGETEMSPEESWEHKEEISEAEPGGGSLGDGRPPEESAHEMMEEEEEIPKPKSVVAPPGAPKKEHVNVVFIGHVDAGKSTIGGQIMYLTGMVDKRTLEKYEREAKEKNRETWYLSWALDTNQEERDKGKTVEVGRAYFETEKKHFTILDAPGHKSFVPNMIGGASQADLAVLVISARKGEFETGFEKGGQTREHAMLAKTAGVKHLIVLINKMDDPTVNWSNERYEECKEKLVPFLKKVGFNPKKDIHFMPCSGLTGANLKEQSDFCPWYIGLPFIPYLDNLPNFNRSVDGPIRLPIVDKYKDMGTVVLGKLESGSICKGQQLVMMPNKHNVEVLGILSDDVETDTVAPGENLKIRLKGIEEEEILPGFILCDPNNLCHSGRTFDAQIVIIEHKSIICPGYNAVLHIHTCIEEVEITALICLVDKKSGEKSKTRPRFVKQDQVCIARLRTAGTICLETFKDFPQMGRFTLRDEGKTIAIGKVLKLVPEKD
Target sequence in this assay (Q96SW2 whole entry, the tested form may be a part): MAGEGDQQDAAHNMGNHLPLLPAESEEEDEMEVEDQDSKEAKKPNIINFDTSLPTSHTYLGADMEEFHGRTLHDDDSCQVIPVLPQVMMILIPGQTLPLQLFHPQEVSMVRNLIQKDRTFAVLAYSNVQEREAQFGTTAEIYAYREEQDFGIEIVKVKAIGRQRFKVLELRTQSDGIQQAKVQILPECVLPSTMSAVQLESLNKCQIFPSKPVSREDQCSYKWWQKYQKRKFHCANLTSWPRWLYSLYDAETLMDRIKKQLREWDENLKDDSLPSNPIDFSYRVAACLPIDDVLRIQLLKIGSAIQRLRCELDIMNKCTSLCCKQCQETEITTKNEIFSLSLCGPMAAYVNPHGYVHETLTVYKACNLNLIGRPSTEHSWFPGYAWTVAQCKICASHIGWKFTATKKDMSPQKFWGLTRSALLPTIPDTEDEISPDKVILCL
Target sequence in this assay (P15731 whole entry partner, the tested form may be a part): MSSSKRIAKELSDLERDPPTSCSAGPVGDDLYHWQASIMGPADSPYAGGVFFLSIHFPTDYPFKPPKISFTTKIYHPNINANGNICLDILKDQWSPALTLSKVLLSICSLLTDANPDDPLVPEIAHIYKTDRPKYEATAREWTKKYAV

[2] = biological target: T2, CK1α ubiquitylation by CRBN (Homo sapiens, UniProt P48729+Q96SW2); test: split-CAT selective growth assay, CK1a as ubiquitylation target of CRBN; assay type: cell-based; settings: split-CAT system, Cereblon-E2 (Ubc4) fusion, chloramphenicol, 96 and 384 well plates
T2 construct: expressed in transfected cells; host or cells: E. coli
Method: as §1, §2
It was expressed in-frame upstream to the N-CAT fragment. […] These assays were performed in 96 and 384 well plates.

[3] = biological target: T3, IKZF1 ubiquitylation by CRBN (Homo sapiens, UniProt Q13422+Q96SW2); test: split-CAT selective growth assay, IKZF1 as ubiquitylation target of CRBN; assay type: cell-based
T3 construct: expressed in transfected cells; host or cells: E. coli
Method: as §1, §2, §3

[4] = biological target: T1, GSPT1 ubiquitylation by CRBN; settings: Matyskiela et al. Nature 535, 252-257 (2016); cited from earlier work
Target sequence in this assay (P15170 whole entry, the tested form may be a part): as the sequence (P15170 whole entry, the tested form may be a part) above
Target sequence in this assay (Q96SW2 whole entry, the tested form may be a part): as the sequence (Q96SW2 whole entry, the tested form may be a part) above
Target sequence in this assay (Q16531 whole entry partner, the tested form may be a part): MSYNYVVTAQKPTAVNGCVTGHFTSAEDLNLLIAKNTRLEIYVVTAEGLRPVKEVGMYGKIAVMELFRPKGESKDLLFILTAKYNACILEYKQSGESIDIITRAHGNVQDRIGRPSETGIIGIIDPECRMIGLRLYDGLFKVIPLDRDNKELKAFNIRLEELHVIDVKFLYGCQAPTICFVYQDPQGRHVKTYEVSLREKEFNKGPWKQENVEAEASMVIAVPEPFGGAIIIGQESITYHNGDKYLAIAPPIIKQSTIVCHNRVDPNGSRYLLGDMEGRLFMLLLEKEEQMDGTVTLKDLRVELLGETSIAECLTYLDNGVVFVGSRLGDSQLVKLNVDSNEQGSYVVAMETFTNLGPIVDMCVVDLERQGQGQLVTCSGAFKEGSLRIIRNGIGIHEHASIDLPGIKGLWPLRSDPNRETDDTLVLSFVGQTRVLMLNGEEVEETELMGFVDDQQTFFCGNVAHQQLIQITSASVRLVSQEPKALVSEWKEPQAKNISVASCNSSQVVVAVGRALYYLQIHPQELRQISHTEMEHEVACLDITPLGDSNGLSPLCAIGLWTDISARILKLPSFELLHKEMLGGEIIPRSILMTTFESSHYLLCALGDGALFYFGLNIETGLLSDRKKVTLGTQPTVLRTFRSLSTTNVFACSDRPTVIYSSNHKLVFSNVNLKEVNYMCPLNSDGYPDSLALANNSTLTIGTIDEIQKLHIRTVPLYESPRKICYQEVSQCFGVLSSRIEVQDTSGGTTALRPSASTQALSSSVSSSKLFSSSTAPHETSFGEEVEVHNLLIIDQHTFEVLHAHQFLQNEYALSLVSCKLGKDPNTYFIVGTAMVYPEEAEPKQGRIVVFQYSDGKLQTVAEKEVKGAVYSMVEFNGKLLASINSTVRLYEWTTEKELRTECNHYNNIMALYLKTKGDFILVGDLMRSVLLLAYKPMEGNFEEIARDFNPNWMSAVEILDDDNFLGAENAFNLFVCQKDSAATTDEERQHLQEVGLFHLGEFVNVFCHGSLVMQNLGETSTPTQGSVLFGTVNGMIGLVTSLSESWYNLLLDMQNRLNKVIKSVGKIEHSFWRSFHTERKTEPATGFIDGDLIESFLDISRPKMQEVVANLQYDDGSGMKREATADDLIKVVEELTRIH

T3 sequence (Q13422 whole entry): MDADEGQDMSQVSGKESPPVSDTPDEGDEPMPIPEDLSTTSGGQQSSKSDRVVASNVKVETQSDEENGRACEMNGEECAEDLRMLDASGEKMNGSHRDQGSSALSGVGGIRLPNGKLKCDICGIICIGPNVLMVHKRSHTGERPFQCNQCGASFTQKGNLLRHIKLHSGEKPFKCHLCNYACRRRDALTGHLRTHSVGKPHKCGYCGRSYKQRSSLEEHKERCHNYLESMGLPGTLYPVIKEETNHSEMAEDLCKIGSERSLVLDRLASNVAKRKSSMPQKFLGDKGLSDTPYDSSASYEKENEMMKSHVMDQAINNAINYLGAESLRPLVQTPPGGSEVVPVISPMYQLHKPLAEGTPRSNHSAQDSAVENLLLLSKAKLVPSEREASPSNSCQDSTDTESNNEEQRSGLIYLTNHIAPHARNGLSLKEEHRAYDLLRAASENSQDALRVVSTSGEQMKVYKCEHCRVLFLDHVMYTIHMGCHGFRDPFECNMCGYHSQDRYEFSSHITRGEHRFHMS
T3 sequence (Q96SW2 whole entry): as the sequence (Q96SW2 whole entry, the tested form may be a part) above
T3 sequence (P15731 whole entry partner): as the sequence (P15731 whole entry partner, the tested form may be a part) above
T2 sequence (P48729 whole entry, the tested form may be a part): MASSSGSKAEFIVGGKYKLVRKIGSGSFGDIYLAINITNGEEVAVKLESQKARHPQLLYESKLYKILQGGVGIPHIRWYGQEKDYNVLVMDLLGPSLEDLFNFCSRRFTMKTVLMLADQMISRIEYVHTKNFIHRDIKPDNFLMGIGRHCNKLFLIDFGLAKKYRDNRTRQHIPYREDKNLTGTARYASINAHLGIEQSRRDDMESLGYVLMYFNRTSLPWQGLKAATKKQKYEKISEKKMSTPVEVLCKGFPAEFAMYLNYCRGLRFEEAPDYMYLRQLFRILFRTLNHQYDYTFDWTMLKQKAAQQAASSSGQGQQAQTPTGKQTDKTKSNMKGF
T2 sequence (Q96SW2 whole entry, the tested form may be a part): as the sequence (Q96SW2 whole entry, the tested form may be a part) above
T2 sequence (P15731 whole entry partner, the tested form may be a part): as the sequence (P15731 whole entry partner, the tested form may be a part) above

growth of E. coli that express GSPT1 (ubiquitylation dependent growth, OD600) ([1]; listed as TLD) | growth of E. coli that express CK1a (ubiquitylation dependent growth, OD600) [2] | shape of dose response curve (growth), IKZF1 target ([3]; increased concentration of drug, split-CAT selection system) | growth of E. coli that express IKZF1 (ubiquitylation dependent growth, OD600) ([3]; split-CAT system, Cereblon-E2 (Ubc4) fusion, LB with chloramphenicol, 96 and 384 well plates) | growth of E. coli that express GSPT1 (ubiquitylation dependent growth, OD600) [1] | SMILES | CRBN dependent ubiquitylation of GSPT1 in the presence of the drug [4] | shape of dose response curve (growth), GSPT1 target ([1]; increased concentration of drug, selective conditions with chloramphenicol)
not promoted | significantly promoted the growth | optimum characteristic response | significantly promoted the growth | – | O=C1CCC(N2C(=O)c3ccccc3C2=O)C(=O)N1 (stereo not shown) [Thalidomide] | – | –
– | – | – | – | significantly promoted the growth | Cc1ccc(NC(=O)NCc2ccc3c(c2)CN(C2CCC(=O)NC2=O)C3=O)cc1Cl (stereo not shown) [CC-885] | undergo CRBN dependent ubiquitylation | classical bell-shaped activity (growth) curve
